US20260022142A1, “MACROCYCLIC IMMUNOMODULATORS” (Bristol-Myers Squibb Company, priority 2022, published 2026)
pIC50: −log10 of the molar value. Bridge positions count the residues as written; N and C are the ends. Square brackets hold non-standard residues; d marks the D form. Peptide text beside a SMILES is read from it. * marks the point of attachment. ξ: configuration not given here. Phe(4-CH2CH2COOH) = N[C@@H](Cc1ccc(CCC(=O)O)cc1)C(=O)O; Bip = N[C@@H](Cc1ccc(-c2ccccc2)cc1)C(=O)O; Phe(3-Me) = Cc1cccc(C[C@H](N)C(=O)O)c1; Val(3-OH) = CC(C)(O)[C@H](N)C(=O)O; hArg = N=C(N)NCCCC[C@H](N)C(=O)O; Cha = N[C@@H](CC1CCCCC1)C(=O)O; Cit = NC(=O)NCCC[C@H](N)C(=O)O; Thr(3ξ) = CC(O)[C@H](N)C(=O)O; X20 = CN(CCCCCCCCCCC(=O)O)*; 12Ado = NCCCCCCCCCCCC(=O)O; Carboxymethyl = O=C(O)C*; Orn = NCCC[C@H](N)C(=O)O; Aun = NCCCCCCCCCCC(=O)O; Dab = NCC[C@H](N)C(=O)O; Dap = NC[C@H](N)C(=O)O; AEEA = NCCOCCOCC(=O)O; Piv = CC(C)(C)C(=O)*; ξDab = NCCC(N)C(=O)O

Target: T1, PD-1/PD-L1 interaction (PE-labeled human PD-L1-Ig binding to Jurkat cell line over-expressing human PD-1) (Homo sapiens, UniProt Q15116)
T1 construct: expressed in transfected cells; host or cells: Jurkat
T1 sequence (Q15116 25-288): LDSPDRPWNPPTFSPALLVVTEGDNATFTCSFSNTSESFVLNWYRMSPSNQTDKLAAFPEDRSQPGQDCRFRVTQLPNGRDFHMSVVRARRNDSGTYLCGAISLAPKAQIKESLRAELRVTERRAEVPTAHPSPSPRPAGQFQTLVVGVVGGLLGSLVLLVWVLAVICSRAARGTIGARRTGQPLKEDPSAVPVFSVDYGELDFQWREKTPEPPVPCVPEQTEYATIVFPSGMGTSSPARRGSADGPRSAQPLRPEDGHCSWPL
Assay: Jurkat-PD-1 Cell Binding High-Content Screening Assay (CBA)
Type: cell-based
Details: Jurkat cell line over-expressing human PD-1; PE-labeled PD-L1-Ig 20 nM final; read-out: Jurkat hPD1-PDL1 IC50
Procedure, shortened: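 Human PD-L1-Ig carrying a covalent PE label on its Ig tag serves as the probe, applied at 20 nM final to compound-treated (2 h, 37° C) Jurkat-hPD-1 cells in medium with 10% fetal calf serum. After one hour, fixation and nuclear staining precede high-content image analysis.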

| Compound | pIC50 |
| --- | --- |
| Cc1cccc(C[C@@H]2NC(=O)[C@H](CC(=O)O)NC(=O)[C@H](Cc3ccc(OCC(=O)O)cc3)NC(=O)[C@H](C(C)O)NC(=O)CSC[C@@H](C(=O)NC(CCN)C(=O)NCCCCCCCCCCCC(=O)O)NC(=O)[C@H](C(C)O)NC(=O)[C@H](C(C)C)NC(=O)[C@H](CC3CCCCC3)NC(=O)[C@H](CCN)NC(=O)[C@@H](CC(C)C)NC(=O)[C@H](CCCN)NC(=O)[C@H](CCCNC(N)=O)NC(=O)[C@H](Cc3ccc(-c4ccccc4)cc3)NC(=O)[C@H](C(C)C)NC2=O)c1 (stereo partly drawn) [Compound 3504] ({CH2CO}-[Thr(3ξ)]Y(Carboxymethyl)D[Phe(3-Me)]V[Bip][Cit][Orn][dL][Dab][Cha]V[Thr(3ξ)]C[ξDab][12Ado]-OH; thioether N-14) | 7.58 |
| CC(=O)NCCCC[C@@H]1NC(=O)[C@H](Cc2ccc(-c3ccccc3)cc2)NC(=O)[C@H](Cc2ccc(O)cc2)NC(=O)[C@H](Cc2cccc(C)c2)NC(=O)[C@H](CC(=O)O)NC(=O)[C@H](Cc2ccc(OCC(=O)O)cc2)NC(=O)[C@H](CCCCNC(=N)N)NC(=O)CSC[C@@H](C(=O)N[C@@H](CCN)C(=O)NCCCCCCCCCCC(=O)O)NC(=O)[C@H](C(C)O)NC(=O)[C@H](C(C)C)NC(=O)[C@H](CC2CCCCC2)NC(=O)[C@H](CCN)NC(=O)[C@@H](CC(C)C)NC(=O)[C@H](CCCN)NC1=O (stereo partly drawn) [Compound 3505] ({CH2CO}-[hArg]Y(Carboxymethyl)D[Phe(3-Me)]Y[Bip]K(Ac)[Orn][dL][Dab][Cha]V[Thr(3ξ)]C[Dab][Aun]-OH; thioether N-14) | 7.78 |
| Cc1cccc(C[C@@H]2NC(=O)[C@H](CC(=O)O)NC(=O)[C@H](Cc3ccc(OCC(=O)O)cc3)NC(=O)[C@H](CCCNC(=N)N)NC(=O)CSC[C@@H](C(=O)N[C@@H](CCN)C(=O)NCCCCCCCCCCC(=O)O)NC(=O)[C@H](C(C)O)NC(=O)[C@H](CO)NC(=O)[C@H](CC3CCCCC3)NC(=O)[C@H](CCN)NC(=O)[C@@H](CC(C)C)NC(=O)[C@H](CCCN)NC(=O)[C@H](Cc3ccc(OCC(=O)O)cc3)NC(=O)[C@H](Cc3ccc(-c4ccccc4)cc3)NC(=O)[C@H](Cc3ccc(CCC(=O)O)cc3)NC2=O)c1 (stereo partly drawn) [Compound 3506] ({CH2CO}-RY(Carboxymethyl)D[Phe(3-Me)][Phe(4-CH2CH2COOH)][Bip]Y(Carboxymethyl)[Orn][dL][Dab][Cha]S[Thr(3ξ)]C[Dab][Aun]-OH; thioether N-14) | 7.82 |
| CC(=O)NCCCC[C@@H]1NC(=O)[C@H](Cc2ccc(-c3ccccc3)cc2)NC(=O)[C@H](Cc2ccc(O)cc2)NC(=O)[C@H](Cc2cccc(C)c2)NC(=O)[C@H](CC(=O)O)NC(=O)[C@H](Cc2ccc(OCC(=O)O)cc2)NC(=O)[C@H](CCCNC(=N)N)NC(=O)CSC[C@@H](C(=O)N[C@@H](CCN)C(=O)NCCCCCCCCCCC(=O)O)NC(=O)[C@H](C(C)O)NC(=O)[C@H](CO)NC(=O)[C@H](CC2CCCCC2)NC(=O)[C@H](CCN)NC(=O)[C@@H](CC(C)C)NC(=O)[C@H](CCCN)NC1=O (stereo partly drawn) [Compound 3507] ({CH2CO}-RY(Carboxymethyl)D[Phe(3-Me)]Y[Bip]K(Ac)[Orn][dL][Dab][Cha]S[Thr(3ξ)]C[Dab][Aun]-OH; thioether N-14) | 7.40 |
| CC(=O)NCCCC[C@@H]1NC(=O)[C@H](Cc2ccc(-c3ccccc3)cc2)NC(=O)[C@H](Cc2ccc(O)cc2)NC(=O)[C@H](Cc2cccc(C)c2)NC(=O)[C@H](CC(=O)O)NC(=O)[C@H](Cc2ccc(OCC(=O)O)cc2)NC(=O)[C@H](CCCNC(=N)N)NC(=O)CSC[C@@H](C(=O)N[C@@H](CCN)C(=O)NCCCCCCCCCCC(=O)O)NC(=O)[C@H](C(C)O)NC(=O)[C@H](C(C)C)NC(=O)[C@H](CC2CCCCC2)NC(=O)[C@H](CCN)NC(=O)[C@@H](CC(C)C)NC(=O)[C@H](CCCN)NC1=O (stereo partly drawn) [Compound 3508] ({CH2CO}-RY(Carboxymethyl)D[Phe(3-Me)]Y[Bip]K(Ac)[Orn][dL][Dab][Cha]V[Thr(3ξ)]C[Dab][Aun]-OH; thioether N-14) | 7.84 |
| Cc1cccc(C[C@@H]2NC(=O)[C@H](CC(=O)O)NC(=O)[C@H](Cc3ccc(OCC(=O)O)cc3)NC(=O)[C@H](Cc3ccc(OCC(=O)O)cc3)NC(=O)CSC[C@@H](C(=O)NCCOCCOCC(=O)N(C)CCCCCCCCCCC(=O)O)NC(=O)[C@H](C(C)O)NC(=O)[C@H](C(C)C)NC(=O)[C@H](CC3CCCCC3)NC(=O)[C@H](CCN)NC(=O)[C@@H](CC(C)C)NC(=O)[C@H](CCCN)NC(=O)[C@H](CCCNC(N)=O)NC(=O)[C@H](Cc3ccc(-c4ccccc4)cc3)NC(=O)[C@H](C(C)C)NC2=O)c1 (stereo partly drawn) [Compound 3509] ({CH2CO}-Y(Carboxymethyl)Y(Carboxymethyl)D[Phe(3-Me)]V[Bip][Cit][Orn][dL][Dab][Cha]V[Thr(3ξ)]C[AEEA]-X20; thioether N-14) | 6.87 |
| Cc1cccc(C[C@@H]2NC(=O)[C@H](CC(=O)O)NC(=O)[C@H](Cc3ccc(OCC(=O)O)cc3)NC(=O)[C@H](CCCNC(=N)N)NC(=O)CSC[C@@H](C(=O)N[C@@H](CNC(=O)C(C)(C)C)C(=O)NCCCCCCCCCCC(=O)O)NC(=O)[C@H](C(C)O)NC(=O)[C@H](C(C)C)NC(=O)[C@H](CC3CCCCC3)NC(=O)[C@H](CCN)NC(=O)[C@@H](CC(C)C)NC(=O)[C@H](CCCN)NC(=O)[C@H](CCCNC(N)=O)NC(=O)[C@H](Cc3ccc(-c4ccccc4)cc3)NC(=O)[C@H](C(C)C)NC2=O)c1 (stereo partly drawn) [Compound 3510] ({CH2CO}-RY(Carboxymethyl)D[Phe(3-Me)]V[Bip][Cit][Orn][dL][Dab][Cha]V[Thr(3ξ)]C[Dap](Piv)[Aun]-OH; thioether N-14) | 7.26 |
| Cc1cccc(C[C@@H]2NC(=O)[C@H](CC(=O)O)NC(=O)[C@H](Cc3ccc(OCC(=O)O)cc3)NC(=O)[C@H](CCNC(=O)C(C)(C)C)NC(=O)CSC[C@@H](C(=O)N[C@@H](CCN)C(=O)NCCCCCCCCCCC(=O)O)NC(=O)[C@H](C(C)O)NC(=O)[C@H](C(C)C)NC(=O)[C@H](CC3CCCCC3)NC(=O)[C@H](CCN)NC(=O)[C@@H](CC(C)C)NC(=O)[C@H](CCCN)NC(=O)[C@H](CCCNC(N)=O)NC(=O)[C@H](Cc3ccc(-c4ccccc4)cc3)NC(=O)[C@H](C(C)C)NC2=O)c1 (stereo partly drawn) [Compound 3511] ({CH2CO}-[Dab](Piv)Y(Carboxymethyl)D[Phe(3-Me)]V[Bip][Cit][Orn][dL][Dab][Cha]V[Thr(3ξ)]C[Dab][Aun]-OH; thioether N-14) | 7.66 |
| Cc1cccc(C[C@@H]2NC(=O)[C@H](CC(=O)O)NC(=O)[C@H](Cc3ccc(OCC(=O)O)cc3)NC(=O)[C@H](CCCNC(=N)N)NC(=O)CSC[C@@H](C(=O)N[C@@H](CCN)C(=O)NCCCCCCCCCCC(=O)O)NC(=O)[C@H](C(C)O)NC(=O)[C@H](C(C)(C)O)NC(=O)[C@H](CC3CCCCC3)NC(=O)[C@H](CCN)NC(=O)[C@@H](CC(C)C)NC(=O)[C@H](CCCN)NC(=O)[C@H](CCCNC(N)=O)NC(=O)[C@H](Cc3ccc(-c4ccccc4)cc3)NC(=O)[C@H](C(C)C)NC2=O)c1 (stereo partly drawn) [Compound 3512] ({CH2CO}-RY(Carboxymethyl)D[Phe(3-Me)]V[Bip][Cit][Orn][dL][Dab][Cha][Val(3-OH)][Thr(3ξ)]C[Dab][Aun]-OH; thioether N-14) | 7.74 |
| Cc1cccc(C[C@@H]2NC(=O)[C@H](CC(=O)O)NC(=O)[C@H](Cc3ccc(OCC(=O)O)cc3)NC(=O)[C@H](CCCNC(=N)N)NC(=O)CSC[C@@H](C(=O)N[C@@H](CCN)C(=O)NCCCCCCCCCCC(=O)O)NC(=O)[C@H](C(C)O)NC(=O)[C@H](C(C)(C)O)NC(=O)[C@H](CC3CCCCC3)NC(=O)[C@H](CCN)NC(=O)[C@@H](CC(C)C)NC(=O)[C@H](CCCN)NC(=O)[C@H](Cc3ccc(OCC(=O)O)cc3)NC(=O)[C@H](Cc3ccc(-c4ccccc4)cc3)NC(=O)[C@H](Cc3ccc(OCC(=O)O)cc3)NC2=O)c1 (stereo partly drawn) [Compound 3513] ({CH2CO}-RY(Carboxymethyl)D[Phe(3-Me)]Y(Carboxymethyl)[Bip]Y(Carboxymethyl)[Orn][dL][Dab][Cha][Val(3-OH)][Thr(3ξ)]C[Dab][Aun]-OH; thioether N-14) | 7.97 |
| Cc1cccc(C[C@@H]2NC(=O)[C@H](CC(=O)O)NC(=O)[C@H](Cc3ccc(OCC(=O)O)cc3)NC(=O)[C@H](CCCNC(=N)N)NC(=O)CSC[C@@H](C(=O)N[C@H](CC(N)=O)C(=O)NCCCCCCCCCCC(=O)O)NC(=O)[C@H](C(C)O)NC(=O)[C@H](CO)NC(=O)[C@H](CC3CCCCC3)NC(=O)[C@H](CCN)NC(=O)[C@@H](CC(C)C)NC(=O)[C@H](CCCN)NC(=O)[C@H](Cc3ccc(OCC(=O)O)cc3)NC(=O)[C@H](Cc3ccc(-c4ccccc4)cc3)NC(=O)[C@H](Cc3ccc(OCC(=O)O)cc3)NC2=O)c1 (stereo partly drawn) [Compound 3515] ({CH2CO}-RY(Carboxymethyl)D[Phe(3-Me)]Y(Carboxymethyl)[Bip]Y(Carboxymethyl)[Orn][dL][Dab][Cha]S[Thr(3ξ)]C[dN][Aun]-OH; thioether N-14) | 6.77 |
| Cc1cccc(C[C@@H]2NC(=O)[C@H](CC(=O)O)NC(=O)[C@H](Cc3ccc(OCC(=O)O)cc3)NC(=O)[C@H](CCCNC(=N)N)NC(=O)CSC[C@@H](C(=O)N[C@@H](CCN)C(=O)NCCCCCCCCCCC(=O)O)NC(=O)[C@H](CCC(N)=O)NC(=O)[C@H](CO)NC(=O)[C@H](CC3CCCCC3)NC(=O)[C@H](CCN)NC(=O)[C@@H](CC(C)C)NC(=O)[C@H](CCCN)NC(=O)[C@H](Cc3ccc(OCC(=O)O)cc3)NC(=O)[C@H](Cc3ccc(-c4ccccc4)cc3)NC(=O)[C@H](Cc3ccc(OCC(=O)O)cc3)NC2=O)c1 [Compound 3516] ({CH2CO}-RY(Carboxymethyl)D[Phe(3-Me)]Y(Carboxymethyl)[Bip]Y(Carboxymethyl)[Orn][dL][Dab][Cha]SQC[Dab][Aun]-OH; thioether N-14) | 7.99 |
